Data taken from ChEMBL document CHEMBL1123796, “New antitumor agents containing the anthracene nucleus” (1987).

Experiments:
Format in all cases: functional
Mus musculus [1] = test: Tested for high-dose toxicity in mice at a significant dose of 90 mg/kg administered intraperitoneally after 1 days of treatment; details: route intraperitoneal
RPMI-8226 [2] = test: Effect on protein synthesis was determined by incorporation of radioligand into 8226 human myeloma cells at a concentration of 1 ug/mL. (*: >1 log cell kill)
Mus musculus [3] = test: Tested for high-dose toxicity in mice at a significant dose of 60 mg/kg administered intraperitoneally after 5 days of treatment; details: route intraperitoneal
Mus musculus [4] = test: Tested for percent average weekly weight change in mice at a significant dose of 45 mg/kg administered intraperitoneally after 5 days of treatment; details: route intraperitoneal
P388 = test: Antileukemic activity against P-388 in mice at a dose of 37.5 mg/kg administered intraperitoneally after 5 day treatment; details: Mus musculus, P388, ip, 120 h, route intraperitoneal
L1210 = test: Effect on RNA synthesis was determined by incorporation of radioligand into L1210 murine leukemia at a concentration of 0.01 ug/mL; details: Mus musculus
RPMI-8226 [5] = test: Effect on protein synthesis was determined by incorporation of radioligand into 8226 human myeloma cells at a concentration of 0.01 ug/mL

Compound: CN(C)CCNCc1c2ccccc2c(CNCCN(C)C)c2ccccc12
- Lethality (Mus musculus [1]): 20%
- Median day of death (Mus musculus [1]): 10
- inhibition at 1 µg/mL (RPMI-8226 [2]): 45.9%
- Lethality (Mus musculus [3]): 0%
- Average weekly weight change (Mus musculus [4]): -12%
- ILS at 37.5 mg/kg (P388): 0%
- inhibition at 0.01 µg/mL (L1210): 0%
- inhibition at 0.01 µg/mL (RPMI-8226 [5]): 67.5%
